Data set [1] in a line: Determination of lactone-zwitterion equilibrium constant (KL-Z). Type of data set: physicochemical. To be noted: 1:1 (v/v) dioxane:water. How it is done: Determination of KL-Z. The lactone-zwitterion equilibrium constant (KL-Z) was calculated as described previously^13, 23, 32, 45 using equation 1: […]
where εdw is the extinction coefficient of the dyes in a 1:1 (v/v) dioxane:water solvent mixture containing 0.01% (v/v) triethylamine; this dioxane water mixture was chosen to give a large range of KL-Z values,^23 and the triethylamine additive ensures the rhodamines are in the net neutral form. The εmax is the maximal extinction coefficient, measured in 0.1% (v/v) trifluoroacetic acid in 2,2,2-trifluoroethanol (TFE).

Data set [2] concerns the target T1, msGFP-HaloTag® fusion protein (mitochondria) from HEK293T cells (Rhodococcus rhodochrous, UniProt P0A3G2, A155T/A167V/A172T/A224E/C128F/C176G/D78G/E160K/E257K/H272N/K175M/K195N/L47V/L88M/N227D/S58T/T264A/Y273L/Y87F).
T1 construct: and (4) HaloTag®; expressed in transfected cells; host or cells: HEK293T, calcium phosphate transfection
Put plainly: Affinity capture (streptavidin microbeads) and in-gel fluorescence. The format is cell-based. Particulars: for affinity capture (protein bound to streptavidin): streptavidin beads; for capture efficiency: mean±SEM, n=3, streptavidin beads. How it is done: Affinity capture and in-gel fluorescence experiments. Affinity capture pulldown isolation experiments of biotin-labeled HaloTag® fusion proteins were performed on ice-cold isolation buffer (IB) consisting of KCl (0.18 M), ethylene glycol-bis(β-aminoethyl ether)-N,N,N′,N′-tetraacetic acid (EGTA; 1 mM), 3-(N-morpholino)propanesulfonic acid (MOPS; 5 mM); the pH was adjusted to pH=7.35 using KOH(aq).^51 HEK293T cells were scraped with 500 μL IB and homogenized using 12 strokes with a 27G syringe. The resulting homogenate was spun at 4° C. at 1000 g for 3 min to pellet large cellular debris. 50 μL of streptavidin-coated microbeads (Miltenyi, 130-048-101) were added to the supernatant and incubated for 30 min at 4° C. with slow rotation. LS columns (Miltenyi, 130-042-401) were prepared by first washing with 3 mL IB consisting of 2.5% bovine serum albumin (BSA; Jackson ImmunoResearch, 001-000-162) and then with plain IB (3×). Prior to supernatant-microbead mixture being loaded onto LS columns, 5% volume was taken for downstream total fraction calculations (i.e., the “total/20” sample). Columns and samples were kept at 4° C. (cold room) while samples were loaded onto columns and washed with IB (3×); this fraction was collected as designated as “wash”. After the washing step, the column was removed from the QuadroMACs magnet holder (Miltenyi, 130-092-857) and eluted with gentle plunge action into an Eppendorf tube; this was labeled as “eluate”. From here, there were three fractions for each condition: total/20, wash (unbound), and eluate (bound). Since mitochondria were being isolated, these samples were spun at 4° C. and 20,000 g to pellet mitochondria. These samples were then solubilized using the lysis buffer containing 1×PBS, 2% SDS, 1% Triton x-100, 10 mM EDTA, and protease inhibitors (2 mM PMSF, aprotinin, leupeptin, and pepstatin A). Samples were then incubated at 72° C. for 3-4 min after the addition of sample buffer (SB) (DTT, glycerol, and bromophenol blue). For protein detection, 10-20 μL of the sample was subjected to sodium dodecyl sulfate-polyacrylamide gel electrophoresis (SDS-PAGE), using 13% gels. The affinity capture pulldown efficiency was monitored using in-gel fluorescence. The msGFP signal from HaloTag®-TEV-4×GS-msGFP-mito after cell lysis and SDS-PAGE was analyzed, in-gel, using a BioRad Chemidoc MP imager (BioRad) through GFP fluorescence excitation and emission filters. Data were quantified by densitometry using Fiji.^52 Capture efficiency was calculated using equation 3:
[formula] • where Ieluate is the in-gel fluorescence intensity of the bead-bound fraction and Itotal/20 is the in-gel fluorescence intensity of the 5% of crude sample reserved for concentration control (i.e., the “total/20” sample).
Evaluation of biotin-HaloTag® ligand. A live cell permeable biotin reagent was saught for affinity pulldown of HaloTag® fusion proteins, given the broad utility of biotin conjugates in biochemistry and cell biology. To evaluate the performance of biotin-containing HaloTag® ligand, an assay was developed (FIG. 3A) where the HaloTag® is expressed as a fusion with monomeric superfolder green fluorescent protein (msGFP); the construct also included an OMP25 sequence to localize the fusion protein to the outer mitochondrial membrane, allowing straightforward imaging and affinity capture experiments.^28-29 HEK293T cells expressing this fusion protein were incubated with biotin-containing HaloTag® ligands followed by washing and cell lysis. The crude supernatant was incubated with streptavidin-coated magnetic microbeads, applied to a magnetic column, and washed. The magnet was removed, and the bead-bound mitochondria were eluted, lysed, and the resulting solution was analyzed by sodium dodecyl sulfate-polyacrylamide gel electrophoresis (SDS-PAGE) and in-gel fluorescence. To minimize dilution of the sample only the initial bead-bound fraction was collected, leaving some material on the column. […]

The test system of data set [3] is HaloTag®-histone H2B fusion protein. The format is cell-based. To be noted: for time to reach saturation of labeling: 200 nM, live U2OS cells expressing HaloTag®-H2B, 0-4 h. How it is done:
Dye loading kinetics. Live U2OS.H2B.HaloTag® stable cells were labeled over a time course of 0-4 h with 200 nM of biotin-JF549-HaloTag® ligand (12), biotin-JF608-HaloTag® ligand (13), biotin-JF646-HaloTag® ligand (14), or biotin-JF635-HaloTag® ligand (15) at 37° C. Cells were then washed 3× with dye-free media, fixed with 4% paraformaldehyde in 0.1 M phosphate buffer, pH 7.4 for 15 min at 37° C. Confocal imaging was performed on a Leica SP8 with an HC PL APO CS2 20×/0.75 immersion objective using the tunable white light laser (WLL) to excite dyes at their λabs in constant power mode. Fluorescence was quantified as the average integrated density of background corrected nuclear signals from confocal image stack projections analyzed in FIJI; n=100 nuclear signals per compound.

T1 sequence (P0A3G2 other isoform, or with tags, fused parts or gaps with the stated changes): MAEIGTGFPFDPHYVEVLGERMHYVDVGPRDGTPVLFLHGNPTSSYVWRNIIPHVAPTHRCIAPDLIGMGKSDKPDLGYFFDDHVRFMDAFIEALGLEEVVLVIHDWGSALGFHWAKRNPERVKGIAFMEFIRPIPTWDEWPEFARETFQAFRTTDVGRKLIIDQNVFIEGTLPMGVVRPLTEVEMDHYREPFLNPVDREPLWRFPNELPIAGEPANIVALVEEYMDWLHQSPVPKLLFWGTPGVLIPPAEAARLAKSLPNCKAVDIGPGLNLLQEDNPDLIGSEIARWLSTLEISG

For `C[Si]1(C)c2cc(N3CC(F)C3)ccc2C2(OC(=O)c3ccc(C(=O)NCCOCCOCCCCCCCl)cc32)c2ccc(N3CC(F)C3)cc21` [5HTL, JF635-HaloTag® ligand, reference compound], the KL-Z in data set [1] was 0.0048. Further, the “affinity capture (protein bound to streptavidin)” value in data set [2] was “no appreciable protein capture”.

For the molecule `C[Si]1(C)C2=CC(=[N+]3CC(C(=O)NCCOCCOCCNC(=O)CCCC[C@@H]4SC[C@@H]5NC(=O)N[C@@H]54)C3)C=CC2=C(c2cc(C(=O)NCCOCCOCCCCCCCl)ccc2C(=O)[O-])c2ccc(N3CCC3)cc21` (stereo partly drawn) [compound 14, Biotin-JF646-HaloTag® ligand], the “time to reach saturation of labeling” value in data set [3] is “approximately 1 h”. This molecule came in with a KL-Z in data set [1] of 0.0086. Moreover, in data set [2], the capture efficiency worked out at 44.8±2.8% and the “affinity capture (protein bound to streptavidin)” value was “efficient affinity capture”.

Regarding `C[Si]1(C)C2=CC(=[N+]3CC(F)(C(=O)NCCOCCOCCNC(=O)CCCC[C@@H]4SC[C@@H]5NC(=O)N[C@@H]54)C3)C=CC2=C(c2cc(C(=O)NCCOCCOCCCCCCCl)ccc2C(=O)[O-])c2ccc(N3CC(F)C3)cc21` (stereo partly drawn) [compound 15, Biotin-JF635-HaloTag® ligand], the “time to reach saturation of labeling” value in data set [3] is on record as “approximately 1 h”. Besides, the KL-Z in data set [1] turned out to be 0.0032. Also, in data set [2], the capture efficiency came to 43.4±2.3% and the “affinity capture (protein bound to streptavidin)” value was “efficient affinity capture”.

As for “Biotin-JF549-HaloTag® ligand [compound 12]”, in data set [3], the membrane permeability result is given as “negligible membrane permeability”. The same molecule gave a KL-Z in data set [1] of 5.9.

(Values after patent US20240239818A1, “COMPOUNDS AND COMPOSITIONS COMPRISING FLUOROPHORES FOR USE IN VISUALIZATION AND PURIFICATION OR MANIPULATION” (priority 2022, published 2024).)
